We go through 102 compounds from ChEMBL document CHEMBL3507680, “University of Dundee, Gates Library screen for HepG2 cell viability”.

SMILES strings stand for the structures.

This data set can be described thus: Human HepG2 cell viability assay in 384 well format. More on the design: dose 125 nL, time 70.5 hour; cytotoxicity at 70.5 h: concentration not given beside the values. The class given is toxicity, cell-based. To be noted: HepG2 cells, read-out: Inhibition.
In the case of `CS(=O)(=O)NC1CCN(C(=O)c2[nH]c3ccc(Cl)cc3c2Cl)CC1`, the cytotoxicity at 70.5 h stood at 31.7%.
As to `Cc1cccc(C2(CNC(=O)C(C)S(C)(=O)=O)CCCC2)c1` (configuration not stated), the cytotoxicity at 70.5 h is -3.73%.
With `Cc1cccc(C2(CNC(=O)C(C)NC(N)=O)CCCC2)c1` (configuration not stated), the cytotoxicity at 70.5 h is 4.08%.
Next, `CC(C(=O)N(C)C)S(=O)(=O)c1cc2c(cc1Cl)OCCO2` (configuration not stated): -6.12%.
For `N#Cc1cc(S(N)(=O)=O)ccc1NC1CCc2cc(Cl)ccc21` (configuration not stated), the cytotoxicity at 70.5 h is -11.2%.
With `N#Cc1cc(S(N)(=O)=O)ccc1NC1CCc2ccc(F)cc21` (configuration not stated), the cytotoxicity at 70.5 h is 7.54%.
For the compound `Cn1cc(CNc2ccc(CCO)cc2)c(-c2ccncc2)n1`, the cytotoxicity at 70.5 h stood at 21.4%.
On to `Cc1ccc(OCC(O)Cn2ncc3cnn(C)c(=O)c32)cc1` (configuration not stated), for which the cytotoxicity at 70.5 h is -6.88%.
Consider `Cc1ccc(N2CCCC(N3CCN(CC(F)F)CC3)C2=O)cc1` (configuration not stated), for which the cytotoxicity at 70.5 h is -6.94%.
As for `CSCCN(C)Cc1ccc(F)cc1C#N`, the figure is -4.74%.
For the compound `Cc1cnc(NCc2ccc(S(=O)(=O)N(C)C(C)C)cc2)nc1C`, the cytotoxicity at 70.5 h was -11.1%.
On to `CCCc1nccn1CCn1cnc2ccsc2c1=O`, for which the cytotoxicity at 70.5 h was 1.1%.
In the case of `CC(C)c1nccn1CCn1cnc2ccsc2c1=O`, the cytotoxicity at 70.5 h is -8.28%.
As to `CN(Cc1ccc(F)cc1C#N)CC(F)(F)F`, the cytotoxicity at 70.5 h stood at 17.4%.
In the case of `Cc1cc(C)n(C2CN(CC(O)Cn3cccn3)C2)n1` (configuration not stated), the cytotoxicity at 70.5 h is 7.73%.
As for `Cc1ccc(C)c(CS(=O)(=O)CC(=O)N(C)Cc2cccc(F)c2)c1`, the cytotoxicity at 70.5 h amounted to 21.1%.
For the compound `Cc1ccccc1CS(=O)(=O)CC(=O)N(C)Cc1ccccc1`, the cytotoxicity at 70.5 h was -9.59%.
As to `Cc1noc(C)c1CNC(=O)C1(NS(C)(=O)=O)CCCCC1`, the cytotoxicity at 70.5 h is -5.85%.
Turning to `Cc1noc(C)c1CN(C)C(=O)C1(NS(C)(=O)=O)CCCCC1`, the cytotoxicity at 70.5 h is -0.856%.
On to `COCc1nc(C(=O)N2CCN(Cc3cc(C)on3)CC2)cs1`, for which the cytotoxicity at 70.5 h was -5.75%.
Consider `CC(C(=O)NC1CC1)S(=O)(=O)Cc1csc(-c2cccs2)n1` (configuration not stated), for which the cytotoxicity at 70.5 h came to 11%.
Next, `COCCN1CCC(NCc2c(C)nn(C)c2N(C)C)CC1`: -4.85%; `Cc1ccccc1CS(=O)(=O)CC(=O)N(C)Cc1ccccc1F`: -1.24%; `Cc1noc(C)c1CN(C)C(=O)C1(N)CCCCC1`: -2.97%.
For `O=C(C1CCCN1S(=O)(=O)C1CCCC1)N1CCSCC1` (configuration not stated), the cytotoxicity at 70.5 h was -5.09%.
As to `Cc1nnc(CN2CCCC2c2cccc(Br)c2)o1` (configuration not stated), the cytotoxicity at 70.5 h is -4.5%.
Next, `CC(C)N(C)S(=O)(=O)N1CCCC1C(=O)N1CCSCC1` (configuration not stated): -0.523%; `CCN1CCN(c2ccc(C(=O)NCCOC)cc2F)CC1`: 25.2%; `Cc1cnn(C2CN(CC(O)Cn3cccn3)C2)c1` (configuration not stated): 7.89%.
In the case of `NS(=O)(=O)c1cnn(-c2ccc(NC(=O)CC3CCCC3)cn2)c1`, the cytotoxicity at 70.5 h is -5.14%.
Consider `NS(=O)(=O)c1cnn(-c2ccc(NC(=O)C3CCCCC3)cn2)c1`, for which the cytotoxicity at 70.5 h was -0.503%.
For the compound `Cc1ccc(C(=O)NS(=O)(=O)Cc2ccon2)c(C)c1`, the cytotoxicity at 70.5 h is -4.2%.
As for `CC(c1cc(F)ccc1F)N1CCN(C(=O)c2ccc(=O)[nH]c2)CC1` (configuration not stated), the cytotoxicity at 70.5 h was -1.22%.
In the case of `COc1cc(C)c(CNC(C)c2csc(C3CC3)n2)cc1OC` (configuration not stated), the cytotoxicity at 70.5 h was -4%.
Next, `CCOc1cc(CNC(C)c2sccc2C)ccn1` (configuration not stated): -0.185%.
Take `CCOc1cc(CNC(C)c2ccc(F)cc2)ccn1` (configuration not stated): the cytotoxicity at 70.5 h came out at 26.8%.
As for `CCN(C(=O)C1Cc2cc(Cl)ccc2O1)C1CC1` (configuration not stated), the cytotoxicity at 70.5 h was -2.35%.
Regarding `CS(=O)(=O)N1CCN(CC(=O)Nc2cccc(Cl)c2)CC1`, the cytotoxicity at 70.5 h worked out at 5.96%.
Next, `CC(C)(NC(=O)c1cnc(-c2ccccc2F)s1)C(N)=O`: -10.3%; `CN(Cc1cccc(F)c1)S(=O)(=O)N1CCOCC1`: -3.2%; `O=C(NCc1cc[nH]n1)NC1CCCN(c2ncccn2)C1` (configuration not stated): -6.39%.
Regarding `O=C(NCc1ccoc1)NC1CCCN(c2ncccn2)C1` (configuration not stated), the cytotoxicity at 70.5 h was -4.3%.
Turning to `O=C(NCc1ccc(F)cc1)N1CCC(C2OCCO2)CC1`, the cytotoxicity at 70.5 h was -10%.
Turning to `COCCn1ccc2cc(NC(C)=O)ccc21`, the cytotoxicity at 70.5 h is -5.43%.
For `CN(Cc1nccn1CC(F)(F)F)C(=O)c1ccc(F)c(F)c1`, the cytotoxicity at 70.5 h was -1.82%.
On to `COc1cccc2c1OCC(NC(=O)NCc1cccs1)C2` (configuration not stated), for which the cytotoxicity at 70.5 h was -0.177%.
Next, `CCc1nccn1C1CCCN(C(=O)c2cnc3ccccc3n2)C1` (configuration not stated): -2.77%.
As for `CCc1nccn1C1CCCN(C(=O)c2ccc3[nH]cnc3c2)C1` (configuration not stated), the figure is -5.72%; as for `CC(O)CN1CCN(C(=O)c2cc3ccccc3[nH]c2=O)CC1` (configuration not stated), -11%; as for `CC(NC(=O)NCC1(O)CCC1)c1ccc(OCC2CC2)c(F)c1` (configuration not stated), -12%.
Turning to `Cc1ccc(CCC(=O)N(C)CCN2CCOCC2)c(C)c1`, the cytotoxicity at 70.5 h is -0.456%.
As for `CCc1csc(C2CCCN(C(=O)c3cnn(CC)c3)C2)n1` (configuration not stated), the cytotoxicity at 70.5 h was found to be 6.03%.
Next, `Cc1cccc(NC(=O)c2sccc2C)n1`: 36.7%; `O=C(C1CC1)N1CCC2(CC1)OCCO2`: -6.55%; `COCCNC(=O)c1ccc(C)c(-n2cccc2)c1`: -2.8%.
For the compound `CS(=O)(=O)NCCCNC(=O)c1cccc(-n2cccc2)c1`, the cytotoxicity at 70.5 h was -1.21%.
`CC(=O)N1CCN(CCNS(=O)(=O)c2ccc(C)c(F)c2)CC1`: the cytotoxicity at 70.5 h came out at 28.3%.
Take `O=C(CN1CCCC(O)C1)NC(=O)NCc1cccs1` (configuration not stated): the cytotoxicity at 70.5 h is -8.04%.
Consider `O=C(CCNC(=O)c1ccccc1)Nc1ccncc1`, for which the cytotoxicity at 70.5 h was -18%.
Take `Cn1cc(NC(=O)Cn2c(CS(C)(=O)=O)nc3ccccc32)cn1`: the cytotoxicity at 70.5 h was -6.35%.
As for `O=C(NCCCNC(=O)c1cccc(O)c1)NCc1ccccc1F`, the cytotoxicity at 70.5 h was -9.83%.
With `Cc1nc(C2(NCC(=O)NC(=O)NCc3cccs3)CCCCC2)no1`, the cytotoxicity at 70.5 h is -12.5%.
As for `Cc1ccc(C(=O)N(C)Cc2cc(Br)cs2)c(=O)[nH]1`, the figure is -11.5%.
Consider `Cc1ccc(C(=O)N(C)Cc2cscn2)c(=O)[nH]1`, for which the cytotoxicity at 70.5 h is -12.9%.
In the case of `CCc1ccc(C(=O)N2CCC(c3nncn3CC)CC2)cc1`, the cytotoxicity at 70.5 h came out at 33.4%.
With `Cc1nn(C)c2sc(C(=O)N3CCCC(n4ccnc4C)C3)cc12` (configuration not stated), the cytotoxicity at 70.5 h was -7.74%.
On to `Cc1ccc(CC2CCCN2CC(=O)NCc2cccnc2)cc1` (configuration not stated), for which the cytotoxicity at 70.5 h was -15.4%.
Regarding `Cn1cc(CC2CCN(C(=O)NCCc3cccc(O)c3)C2)cn1` (configuration not stated), the cytotoxicity at 70.5 h is -12.6%.
Take `CCCN1CCN(C(=O)c2scnc2C)CC1`: the cytotoxicity at 70.5 h was -3.56%.
Next, `Cn1cc(CC2CCN(C(=O)NCc3cn4ccsc4n3)C2)cn1` (configuration not stated): 23.7%.
As to `O=C(C1CCC1)N1CCC2(CC1)OCCO2`, the cytotoxicity at 70.5 h was -7.76%.
As for `Cc1ccccc1C1(CNC(=O)NCCc2nnc3n2CCC3)CC1`, the figure is -17.5%; as for `Cc1nn(C)c(C)c1C(=O)N1CCOCC1CC(=O)c1ccco1` (configuration not stated), -18.7%; as for `COCCOCC(=O)Nc1ccc(C)cc1F`, -7.66%.
`CCn1cnnc1C1CCN(C(=O)c2cnc3ccccc3n2)CC1`: the cytotoxicity at 70.5 h was -16.4%.
For `CN(CCc1cccs1)C1CCCN(Cc2noc(C3CC3)n2)C1` (configuration not stated), the cytotoxicity at 70.5 h was determined as 8.79%.
`CC(C)c1nnc2n1CC(CNCc1ccncc1)CC2` (configuration not stated): the cytotoxicity at 70.5 h is -3.85%.
Turning to `CN(Cc1cnn(C)c1)C(=O)NC1CCS(=O)(=O)C1` (configuration not stated), the cytotoxicity at 70.5 h was -6.09%.
As for `c1cc(C2CCCN2Cc2nnnn2C2CC2)cs1` (configuration not stated), the figure is -8.27%; as for `Cn1cc(CCNC(=O)NC2CCS(=O)(=O)C2)cn1` (configuration not stated), -1.53%.
Next, `CNC(=O)CCNC(=O)c1cccc(Cn2nc(C)cc2C)c1`: -3.48%; `Cc1nn(C)c(N2CCOCC2)c1CNC(C)c1cccnc1` (configuration not stated): -8.78%.
Take `Cc1ncc(CNC(=O)Nc2cc(C(F)(F)F)c[nH]c2=O)s1`: the cytotoxicity at 70.5 h was 0.0851%.
On to `CN(C)S(=O)(=O)N1CCC(Oc2ccc(C#N)cc2)CC1`, for which the cytotoxicity at 70.5 h was -4.56%.
For the compound `Cc1cc(C)n(Cc2ccc(C(=O)NCCN3CCOCC3)cc2)n1`, the cytotoxicity at 70.5 h is 1.27%.
As for `CCc1nnc2n1CCN(C(=O)c1cnc3ccccc3n1)C2`, the figure is -4.54%; as for `CC(CN1CCN(C)CC1)NC(=O)c1cc(Cl)c2c(c1)OCO2` (configuration not stated), -0.705%.
Take `CCc1nnc2n1CCN(C(=O)c1ccc3nc(C)c(C)nc3c1)C2`: the cytotoxicity at 70.5 h came out at 1.25%.
As to `CCc1nnc2n1CCN(C(=O)c1ccc3[nH]cnc3c1)C2`, the cytotoxicity at 70.5 h was found to be 4.85%.
As for `COc1ccc(OC)c(CNCCc2cc(F)cc3c2OCOC3)c1`, the figure is 9.35%.
Next, `O=C(CCc1cscn1)NS(=O)(=O)c1ccc2ccccc2c1`: -5.17%; `c1cc2c(cc1C1CCCN1Cc1nnnn1C1CC1)OCCO2` (configuration not stated): 13.7%; `CC(C)c1n[nH]c(C2CN(C(=O)CCCn3cccn3)CCO2)n1` (configuration not stated): -3.52%.
Consider `CN(Cc1cnn(C)c1)C(=O)NC1CCC(O)CC1` (configuration not stated), for which the cytotoxicity at 70.5 h is -7.28%.
In the case of `Cc1ccc(CNCC2CCc3nnc(C(C)C)n3C2)s1` (configuration not stated), the cytotoxicity at 70.5 h is -6.69%.
With `CC(C)c1nc(CN(C)C2CCN(Cc3nc(C4CC4)no3)C2)no1` (configuration not stated), the cytotoxicity at 70.5 h was determined as 12%.
As for `CN(C)CC(=O)N1CCc2onc(Cn3cccn3)c2C1`, the cytotoxicity at 70.5 h is -9.72%.
On to `COCC1CC2(CCN(Cc3cccnc3)CC2)CN1C(C)C` (configuration not stated), for which the cytotoxicity at 70.5 h was -7.91%.
`Cc1nn(C)c(Cl)c1CNCc1cccnc1N1CCOCC1`: the cytotoxicity at 70.5 h amounted to 0.768%.
For the compound `O=C(NC1CC1)[C@H]1C[C@@H]2CCN(Cc3ccc4c(c3)OCO4)C[C@@H]2O1`, the cytotoxicity at 70.5 h is -12.5%.
Next, `O=C(NCC1CC1)[C@H]1C[C@@H]2CCN(Cc3ccc4c(c3)OCO4)C[C@@H]2O1`: -11.6%.
With `Fc1cnc(N2CCCC3(COCCN(c4nccs4)C3)C2)nc1` (configuration not stated), the cytotoxicity at 70.5 h was -12.2%.
